The values below come from patent publication US20110183963A1 (priority 2009, published 2011).

The conditions of data set [1]: to be dosed efficiently via oral gavage in rats.
The conditions of data set [2]: cited from earlier work.
A further data set deals with leptin. Conditions: chronic oral administration for a period of 6 weeks; cited from earlier work.
A further data set has as its target human NET (Homo sapiens, UniProt P23975). The conditions noted are these: relative to quetiapine; cited from earlier work.
The next data set deals with T1, 5-HT1A receptor (Homo sapiens, UniProt P08908).
T1 sequence (P08908 1-422): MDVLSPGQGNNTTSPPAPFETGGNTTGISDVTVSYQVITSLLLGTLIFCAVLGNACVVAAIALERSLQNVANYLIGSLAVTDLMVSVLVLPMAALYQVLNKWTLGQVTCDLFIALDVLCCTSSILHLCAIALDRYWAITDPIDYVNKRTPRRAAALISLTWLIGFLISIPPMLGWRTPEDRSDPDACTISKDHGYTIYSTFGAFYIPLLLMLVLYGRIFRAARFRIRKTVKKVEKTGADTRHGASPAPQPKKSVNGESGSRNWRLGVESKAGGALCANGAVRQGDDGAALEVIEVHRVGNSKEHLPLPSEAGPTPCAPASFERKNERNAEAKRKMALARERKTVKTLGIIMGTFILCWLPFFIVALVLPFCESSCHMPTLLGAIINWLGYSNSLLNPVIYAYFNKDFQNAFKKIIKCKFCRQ
Conditions: relative to quetiapine; cited from earlier work.

human NET, sequence (P23975 whole entry): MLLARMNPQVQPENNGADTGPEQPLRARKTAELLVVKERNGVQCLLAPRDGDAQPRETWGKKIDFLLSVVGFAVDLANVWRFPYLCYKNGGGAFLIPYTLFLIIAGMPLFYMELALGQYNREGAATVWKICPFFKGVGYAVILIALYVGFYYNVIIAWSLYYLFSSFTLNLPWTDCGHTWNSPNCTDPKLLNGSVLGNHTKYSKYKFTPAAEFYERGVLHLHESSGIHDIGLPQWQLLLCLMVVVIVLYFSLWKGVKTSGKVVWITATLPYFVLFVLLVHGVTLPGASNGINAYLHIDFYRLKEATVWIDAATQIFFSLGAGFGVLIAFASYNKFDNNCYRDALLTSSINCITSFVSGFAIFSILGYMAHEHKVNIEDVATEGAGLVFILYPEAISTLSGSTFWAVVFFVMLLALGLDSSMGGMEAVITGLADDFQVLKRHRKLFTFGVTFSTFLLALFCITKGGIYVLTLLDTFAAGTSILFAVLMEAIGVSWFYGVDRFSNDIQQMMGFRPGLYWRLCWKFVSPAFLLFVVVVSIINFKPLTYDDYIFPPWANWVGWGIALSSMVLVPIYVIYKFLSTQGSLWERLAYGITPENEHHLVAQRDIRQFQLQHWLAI

Turning to `OCCOCCN1CCN(C2=Nc3ccccc3Sc3ccccc32)CC1` [fumarate], in data set [1], the “solubility for oral gavage dosing” value is “not soluble enough”.

For `OCCOCCN1CCN(C2=Nc3ccccc3Sc3ccccc32)CC1` [quetiapine, 2-(2-(4-(dibenzo[b,f][1,4]thiazepin-11-yl)piperazin-1-yl)ethoxy)ethanol], the Absolute bioavailability in data set [2] (estimated) is reported as 9%. The “terminal half-life time for the drug's elimination” value in data set [2] (in vivo) is on record as “about 7 hours”. For the same molecule, in the data set with leptin, the “increase in leptin release” value was “about 37%”.

As to `c1ccc2c(c1)N=C(N1CCNCC1)c1ccccc1S2` [N-desalkyl-quetiapine, 4-(dibenzo[b,f][1,4]thiazepin-11-yl)piperazine], the “higher avidity for inhibiting human NET than quetiapine itself” value on human NET was “about 100 fold”. For the same molecule, the “more potent than quetiapine at the 5-HT1A receptor” value at 5-HT1A receptor is given as 10 fold.
